Each structure is given as a SMILES string.

For the test, the target named is T1, human TYRO3 (Homo sapiens, UniProt Q06418).
T1 construct: purchased Invitrogen
T1 sequence (Q06418 41-890): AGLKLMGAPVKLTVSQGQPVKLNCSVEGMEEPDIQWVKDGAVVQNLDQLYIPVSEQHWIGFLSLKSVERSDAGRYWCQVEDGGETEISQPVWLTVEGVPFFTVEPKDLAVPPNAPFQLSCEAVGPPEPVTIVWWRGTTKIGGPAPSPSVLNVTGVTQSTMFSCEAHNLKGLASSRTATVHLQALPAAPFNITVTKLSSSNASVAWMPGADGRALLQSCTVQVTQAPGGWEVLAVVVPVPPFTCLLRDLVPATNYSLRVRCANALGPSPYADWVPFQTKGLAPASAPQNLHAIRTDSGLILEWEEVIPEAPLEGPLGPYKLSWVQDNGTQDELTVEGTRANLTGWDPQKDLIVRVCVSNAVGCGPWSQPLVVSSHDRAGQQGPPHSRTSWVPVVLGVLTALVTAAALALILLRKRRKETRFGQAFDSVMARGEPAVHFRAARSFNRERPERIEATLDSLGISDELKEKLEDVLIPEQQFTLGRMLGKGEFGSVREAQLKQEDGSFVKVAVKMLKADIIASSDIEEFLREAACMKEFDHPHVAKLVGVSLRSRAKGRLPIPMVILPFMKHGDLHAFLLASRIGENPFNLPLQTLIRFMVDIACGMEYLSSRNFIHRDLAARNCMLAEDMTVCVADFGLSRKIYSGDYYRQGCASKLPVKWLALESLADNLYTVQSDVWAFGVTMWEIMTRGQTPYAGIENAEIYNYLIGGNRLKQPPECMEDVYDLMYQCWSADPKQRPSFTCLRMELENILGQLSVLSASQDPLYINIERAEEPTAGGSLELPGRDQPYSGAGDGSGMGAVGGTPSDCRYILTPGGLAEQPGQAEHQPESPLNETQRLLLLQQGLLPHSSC
As to the kind of experiment: HTRF KinEASE-TK biochemical potency assay, TYRO3. The conditions noted are these: 1 nM TYRO3, 700 μM ATP, 800 nM TK Substrate-biotin. In outline: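 Final conditions: 5 nM AXL, 1 nM TYRO3 or MER, 50 mM HEPES pH 7.4, 10 mM MgCl2, 0.01% BSA, 1 mM DTT, 700 μM ATP. Reaction ran 2 h at RT after 1 h preincubation with compound; HTRF signal read at 665/620 nm.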
For `C[C@@H]1CCCN1C1(C)CCc2ccc(-c3cnc4[nH]nc(-c5ccc(S(=O)(=O)C6CC6)cc5)c4c3)cc2CC1` (stereo partly drawn) [Example 1, 3-(4-(Cyclopropylsulfonyl)phenyl)-5-(7-methyl-7-((R)-2-methylpyrrolidin-1-yl)-6,7,8,9-tetrahydro-5H-benzo[7]annulen-2-yl)-1H-pyrazolo[3,4-b]pyridine], the IC50 was below 0.1 µM. With `CC1(N2CCOCC2)CCc2ccc(-c3cnc4[nH]nc(-c5ccc(S(=O)(=O)C6CC6)cc5)c4c3)cc2CC1` (stereo not shown) [Example 2, 4-(2-{3-[4-(Cyclopropanesulfonyl)phenyl]-1H-pyrazolo[3,4-b]pyridin-5-yl}-7-methyl-6,7,8,9-tetrahydro-5H-benzo[7]annulen-7-yl)morpholine], the IC50 was above 1 µM. Compound `CC1(N2CCC[C@@H]2CO)CCc2ccc(-c3cnc4[nH]nc(-c5ccc(S(=O)(=O)C6CC6)cc5)c4c3)cc2CC1` (stereo partly drawn) [Example 3, [(2R)-1-(2-{3-[4-(Cyclopropanesulfonyl)phenyl]-1H-pyrazolo[3,4-b]pyridin-5-yl}-7-methyl-6,7,8,9-tetrahydro-5H-benzo[7]annulen-7-yl)pyrrolidin-2-yl]methanol] came in with an IC50 below 0.1 µM. Next, `C[C@@H]1CCCN1C1CCc2ccc(-c3cnc4[nH]nc(-c5ccc(C6(O)CCOC6)c(Cl)c5)c4c3)cc2CC1` (stereo partly drawn) [Example 63, 3-[2-Chloro-4-(5-{7-[(2R)-2-methylpyrrolidin-1-yl]-6,7,8,9-tetrahydro-5H-benzo[7]annulen-2-yl}-1H-pyrazolo[3,4-b]pyridin-3-yl)phenyl]oxolan-3-ol]: 0.1 to 1 µM; `C[C@@H]1CCCN1C1CCc2ccc(-c3cnc4[nH]nc(-c5ccc(C6(O)COC6)c(Cl)c5)c4c3)cc2CC1` (stereo partly drawn) [Example 64, 3-[2-Chloro-4-(5-{7-[(2R)-2-methylpyrrolidin-1-yl]-6,7,8,9-tetrahydro-5H-benzo[7]annulen-2-yl}-1H-pyrazolo[3,4-b]pyridin-3-yl)phenyl]oxetan-3-ol]: 0.1 to 1 µM; `C[C@@H]1CCCN1C1CCc2ccc(-c3cnc4[nH]nc(-c5cnc(C(C)(C)O)c(Cl)c5)c4c3)cc2CC1` (stereo partly drawn) [Example 65, 2-[3-Chloro-5-(5-{7-[(2R)-2-methylpyrrolidin-1-yl]-6,7,8,9-tetrahydro-5H-benzo[7]annulen-2-yl}-1H-pyrazolo[3,4-b]pyridin-3-yl)pyridin-2-yl]propan-2-ol]: 0.1 to 1 µM. Consider `COC1CCN(C(=O)c2ccc(-c3n[nH]c4ncc(-c5ccc6c(c5)CC[C@@H](N5CCCC5)CC6)cc34)cc2Cl)CC1` [Example 66, (S)-(2-Chloro-4-(5-(7-(pyrrolidin-1-yl)-6,7,8,9-tetrahydro-5H-benzo[7]annulen-2-yl)-1H-pyrazolo[3,4-b]pyridin-3-yl)phenyl)(4-methoxypiperidin-1-yl)methanone], for which the IC50 is below 0.1 µM. In the case of `COC1CCN(C(=O)c2ccc(-c3n[nH]c4ncc(-c5ccc6c(c5)CCC(C)(N5CCC[C@H]5C)CC6)cc34)cc2Cl)CC1` (stereo partly drawn) [Example 67, 1-[2-Chloro-4-(5-{7-methyl-7-[(2R)-2-methylpyrrolidin-1-yl]-6,7,8,9-tetrahydro-5H-benzo[7]annulen-2-yl}-1H-pyrazolo[3,4-b]pyridin-3-yl)benzoyl]-4-methoxypiperidine], the IC50 is below 0.1 µM. `C[C@@H]1CCCN1C1(C)CCc2ccc(-c3cnc4[nH]nc(-c5ccc(C(N)=O)c(Cl)c5)c4c3)cc2CC1` (stereo partly drawn) [Example 68, 2-Chloro-4-(5-{7-methyl-7-[(2R)-2-methylpyrrolidin-1-yl]-6,7,8,9-tetrahydro-5H-benzo[7]annulen-2-yl}-1H-pyrazolo[3,4-b]pyridin-3-yl)benzamide] yielded an IC50 below 0.1 µM. `C[C@@H]1CCCN1C1(C)CCc2ccc(-c3cnc4[nH]nc(-c5ccc(C(=O)NC6CC6)cc5)c4c3)cc2CC1` (stereo partly drawn) [Example 69, N-Cyclopropyl-4-(5-{7-methyl-7-[(2R)-2-methylpyrrolidin-1-yl]-6,7,8,9-tetrahydro-5H-benzo[7]annulen-2-yl}-1H-pyrazolo[3,4-b]pyridin-3-yl)benzamide] showed an IC50 of 0.1 to 1 µM. In turn, `CC(C)NC(=O)c1ccc(-c2n[nH]c3ncc(-c4ccc5c(c4)CCC(C)(N4CCC[C@H]4C)CC5)cc23)cc1` (stereo partly drawn) [Example 70, 4-(5-{7-Methyl-7-[(2R)-2-methylpyrrolidin-1-yl]-6,7,8,9-tetrahydro-5H-benzo[7]annulen-2-yl}-1H-pyrazolo[3,4-b]pyridin-3-yl)-N-(propan-2-yl)benzamide] registered an IC50 of 0.1 to 1 µM. Next, `COCCNC(=O)c1ccc(-c2n[nH]c3ncc(-c4ccc5c(c4)CCC(C)(N4CCC[C@H]4C)CC5)cc23)cc1` (stereo partly drawn) [Example 72, N-(2-Methoxyethyl)-4-(5-{7-methyl-7-[(2R)-2-methylpyrrolidin-1-yl]-6,7,8,9-tetrahydro-5H-benzo[7]annulen-2-yl}-1H-pyrazolo[3,4-b]pyridin-3-yl)benzamide]: 0.1 to 1 µM; `CCC1(N2CCC[C@H]2C)CCc2ccc(-c3cnc4[nH]nc(-c5ccc(C(N)=O)c(Cl)c5)c4c3)cc2CC1` (stereo partly drawn) [Example 73, 2-Chloro-4-(5-{7-ethyl-7-[(2R)-2-methylpyrrolidin-1-yl]-6,7,8,9-tetrahydro-5H-benzo[7]annulen-2-yl}-1H-pyrazolo[3,4-b]pyridin-3-yl)benzamide]: below 0.1 µM; `CCC1(N2CCC[C@@H]2CO)CCc2ccc(-c3cnc4[nH]nc(-c5ccc(C(N)=O)c(Cl)c5)c4c3)cc2CC1` (stereo partly drawn) [Example 74, 2-Chloro-4-(5-{7-ethyl-7-[(2R)-2-(hydroxymethyl)pyrrolidin-1-yl]-6,7,8,9-tetrahydro-5H-benzo[7]annulen-2-yl}-1H-pyrazolo[3,4-b]pyridin-3-yl)benzamide]: below 0.1 µM.

In turn, `CCC1(N2CCC[C@H]2CO)CCc2ccc(-c3cnc4[nH]nc(-c5ccc(C(N)=O)c(Cl)c5)c4c3)cc2CC1` (stereo partly drawn) [Example 75, 2-Chloro-4-(5-{7-ethyl-7-[(2S)-2-(hydroxymethyl)pyrrolidin-1-yl]-6,7,8,9-tetrahydro-5H-benzo[7]annulen-2-yl}-1H-pyrazolo[3,4-b]pyridin-3-yl)benzamide] displayed a concentration for half-maximal inhibition (IC50) below 0.1 µM. For the compound `C[C@@H]1CCCN1C1(C)CCc2ccc(-c3cnc4[nH]nc(-c5ccc(C(=O)N6CCC6)cc5)c4c3)cc2CC1` (stereo partly drawn) [Example 76, (2R)-1-(2-{3-[4-(Azetidine-1-carbonyl)phenyl]-1H-pyrazolo[3,4-b]pyridin-5-yl}-7-methyl-6,7,8,9-tetrahydro-5H-benzo[7]annulen-7-yl)-2-methylpyrrolidine], the IC50 was 0.1 to 1 µM.

The compound `NC(=O)c1ccc(-c2n[nH]c3ncc(-c4ccc5c(c4)CCC(N4CCCC4)CC5)cc23)cc1Cl` (stereo not shown) [Example 77, 2-Chloro-4-(5-(7-(pyrrolidin-1-yl)-6,7,8,9-tetrahydro-5H-benzo[7]annulen-2-yl)-1H-pyrazolo[3,4-b]pyridin-3-yl)benzamide] came in with an IC50 below 0.1 µM. Under `NC(=O)c1ccc(-c2n[nH]c3ncc(-c4ccc5c(c4)CCC(N4CCCC4)CC5)cc23)cc1` (stereo not shown) [Example 78, 4-(5-(7-(Pyrrolidin-1-yl)-6,7,8,9-tetrahydro-5H-benzo[7]annulen-2-yl)-1H-pyrazolo[3,4-b]pyridin-3-yl)benzamide] stands below 0.1 µM; under `Cc1cc(-c2n[nH]c3ncc(-c4ccc5c(c4)CCC(N4CCCC4)CC5)cc23)cc(F)c1C(N)=O` (stereo not shown) [Example 79, 2-Fluoro-6-methyl-4-(5-(7-(pyrrolidin-1-yl)-6,7,8,9-tetrahydro-5H-benzo[7]annulen-2-yl)-1H-pyrazolo[3,4-b]pyridin-3-yl)benzamide], below 0.1 µM; under `NC(=O)c1ccc(-c2n[nH]c3ncc(-c4ccc5c(c4)CCC(N4CCCC4)CC5)cc23)cc1C(F)(F)F` (stereo not shown) [Example 80, 4-(5-(7-(Pyrrolidin-1-yl)-6,7,8,9-tetrahydro-5H-benzo[7]annulen-2-yl)-1H-pyrazolo[3,4-b]pyridin-3-yl)-2-(trifluoromethyl)benzamide], below 0.1 µM. Next, `NC(=O)c1ccc(-c2n[nH]c3ncc(-c4ccc5c(c4)CCC(N4CCCC4)CC5)cc23)cc1F` (stereo not shown) [Example 81, 2-Fluoro-4-(5-(7-(pyrrolidin-1-yl)-6,7,8,9-tetrahydro-5H-benzo[7]annulen-2-yl)-1H-pyrazolo[3,4-b]pyridin-3-yl)benzamide]: below 0.1 µM; `O=C(c1ccc(-c2n[nH]c3ncc(-c4ccc5c(c4)CC[C@@H](N4CCCC4)CC5)cc23)cc1Cl)N1CCNCC1` [Example 82, (S)-(2-Chloro-4-(5-(7-(pyrrolidin-1-yl)-6,7,8,9-tetrahydro-5H-benzo[7]annulen-2-yl)-1H-pyrazolo[3,4-b]pyridin-3-yl)phenyl)(piperazin-1-yl)methanone]: below 0.1 µM.

The IC50 is the concentration that inhibits the measured activity by half. A higher IC50 goes with weaker potency in that assay.

The values above are taken from patent US20240246967A1, “AXL COMPOUNDS” (ARCUS BIOSCIENCES, INC., priority 2021, published 2024).
